The results in this text go back to patent US10287267B2, “Isoquinolin-3-yl carboxamides and preparation and use thereof” (Samumed, LLC, priority 2016, dated 2019).

The test system of assay [1] is Wnt pathway (Sp5-Luc reporter, TCF/LEF binding sites) in SW480 colon carcinoma cells. Kind of assay: Screening assay for Wnt activity: Sp5-Luc reporter gene assay.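 As to all read-outs here: firefly luciferase luminescence read in stably transduced SW480 cells carrying the Sp5 promoter reporter with eight TCF/LEF sites, compounds given in 0.1% DMSO final.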 It is filed as cell-based, human. Conditions: Homo sapiens; for inhibition at 10 µM: SW480, read-out: percent inhibition at 10 μM; for EC50: Sp5-Luc reporter, SW480 cells, 36 to 48 hours.
Protocol: The screening assay for Wnt activity is described as follows.
Following incubation, 15 μl of BriteLite Plus luminescence reagent (Perkin Elmer) was added to each well of the 384-well assay plates. The plates were placed on an orbital shaker for 2 min and then luminescence was quantified using the Envision (Perkin Elmer) plate reader.
Assay [2] has as its target recombinant DYRK1A kinase (Homo sapiens (Human), UniProt Q13627). Kind of assay: DYRK1A kinase assay (Ser/Thr 18 peptide Z-lyte FRET).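 Also: Read-out is the coumarin to fluorescein emission ratio, referenced to unphosphorylated (0%) and phosphorylated (100%) Ser/Thr 18 peptide controls, values from dose-response curves by non-linear regression.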 In kind it is biochemical. Conditions: 30 μM ATP, 1 h room temperature.
For assay [3], the target named is recombinant GSK3β kinase (Homo sapiens (Human), UniProt P49841). Kind of assay: GSK3β kinase assay (Ser/Thr 09 peptide Z-lyte FRET).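 Also: kinase activity read as coumarin to fluorescein emission ratio, 11-point threefold dilutions from 10 µM to 0.0003 µM in duplicate, unphosphorylated and phosphorylated peptide as 0% and 100% controls.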 Conditions: 46 μM ATP, 1 h room temperature. In kind it is biochemical.
The subject of assay [4] is Tau phosphorylation at Ser396 (pSer396). The assay can be described thus: Tau phosphorylation assay (pSer396 ELISA / western blot) in SH-SY5Y cells.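 Also: EC50 for reduction of Tau pSer396 in lysed cells, measured by colorimetric ELISA or chemiluminescent western blot, both using the same pSer396 antibody.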 It is filed as cell-based, human. The conditions noted are these: Homo sapiens; SH-SY5Y cells, overnight (16-18 h) exposure; read-out: pSer396 Tau EC50. (An ELISA detects its analyte on a solid surface through an enzyme-linked reagent.)

The subject of assay [5] is SW480 colon carcinoma cells. Kind of assay: Cell viability assay (CellTiter-Glo). It is filed as cell-based, human. The conditions noted are these: Homo sapiens; for EC50: 96 h, SW480 cells, CellTiter-Glo, four days incubation; for inhibition at 10 µM: SW480, read-out: percent inhibition at 10 μM. On the technique in general: Cellular ATP, detected with luciferase, serves as a proxy for viable cell number.

For assay [6], the system named is α-smooth muscle actin (αSMA) positive LL29 cells. The assay can be described thus: Inhibition of fibrotic process: αSMA in TGF-β1 treated primary human fibroblasts from IPF patients.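 As to all read-outs here: controls were TGF-β1 stimulated wells with DMSO vehicle (positive) and cells given DMSO alone (negative), cultured in F12 medium with 1% fetal bovine serum.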 It is filed as cell-based. The conditions noted are these: Homo sapiens, Fibroblast; for EC50: 96 h, Table 8, LL29 fibroblasts from IPF patients, TGF-β1 20 ng/mL, 4 days, dose-response 10 μM to 0.94 nM; for inhibition at 10 µM: read-out: percent value in parentheses beside EC50 >10 μM.

Assay [7] concerns IL-6. Kind of assay: IL-6 inhibition in LPS-stimulated human peripheral blood mononuclear cells (HTRF).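 As to all read-outs here: IL-6 detected by HTRF with an XL665- and Cryptate-labelled anti-IL-6 antibody pair, samples run in duplicate, EC50 obtained from a four-parameter Levenberg-Marquardt curve fit.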 In kind it is cell-based. The conditions noted are these: Homo sapiens, PBMC; for inhibition at 10 µM: read-out: percent value in parentheses beside EC50 >10 μM; for EC50: Table 9, huPBMCs, LPS 50 ng/mL, 22 hours, dose-response starting from 10 μM. On the technique in general: In TR-FRET formats the signal depends on donor and acceptor labels being close together.
Protocol: After 22 hour incubation, a mixture of anti-IL6 XL665 and anti-IL-6 Cryptate diluted in reconstitution buffer (Catalog #62IL6PEC, Cisbio Inc., Bedford, Mass.) was added to each well. […] All samples were processed in duplicate. […] EC50 was determined using software generated by Dotmatics Limited (Windhill Bishops Stortford Herts, UK) using the Levenberg-Marquardt 4 parameter fitting procedure with finite different gradients.

Where only a bound is given, the exact number is not on record here.

Chain of recombinant GSK3β kinase (P49841 whole entry): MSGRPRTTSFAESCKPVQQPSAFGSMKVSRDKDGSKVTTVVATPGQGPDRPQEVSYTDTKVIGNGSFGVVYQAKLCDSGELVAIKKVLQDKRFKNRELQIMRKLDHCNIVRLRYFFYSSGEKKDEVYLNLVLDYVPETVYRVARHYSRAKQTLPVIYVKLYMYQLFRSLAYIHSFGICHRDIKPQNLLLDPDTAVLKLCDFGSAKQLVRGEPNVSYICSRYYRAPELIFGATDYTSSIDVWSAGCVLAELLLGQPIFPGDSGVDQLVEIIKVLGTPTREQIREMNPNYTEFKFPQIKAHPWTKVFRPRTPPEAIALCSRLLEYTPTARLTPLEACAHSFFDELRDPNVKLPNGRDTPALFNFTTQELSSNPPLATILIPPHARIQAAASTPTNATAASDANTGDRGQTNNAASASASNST

With `CC1CCN(CC(=O)Nc2cc3cc(-c4cnn(C)c4CN4CCCCC4)ccc3cn2)CC1` [Compound 851, N-(6-(1-Methyl-5-(piperidin-1-ylmethyl)-1H-pyrazol-4-yl)isoquinolin-3-yl)-2-(4-methylpiperidin-1-yl)acetamide], the inhibition at 10 µM came to 6.4% in assay [1], 30.4% in assay [5] and 2.9% in assay [7]. The EC50 – broadly, the concentration at which the effect is half-maximal – in assay [1] was more than 10000 nM; in assay [2], 5010 nM; in assay [3], 5000 nM; in assay [4] it was 350 nM; in assay [5], more than 10000 nM; in assay [6], 692 nM. The half-maximal effective concentration (EC50) in assay [7] was more than 10000 nM.

As to `Cc1ncc(-c2ccc3cnc(NC(=O)C4CC(F)(F)C4)cc3c2)n1C` [Compound 268, N-(6-(1,2-Dimethyl-1H-imidazol-5-yl)isoquinolin-3-yl)-3,3-difluorocyclobutanecarboxamide], the EC50 in assay [1] was 2070 nM; in assay [2] it was 5.8 nM; in assay [3] it was 17 nM; in assay [4], 478 nM; in assay [5], 2770 nM; in assay [6] it was 73 nM. Moreover, the midpoint of the response in assay [7], the EC50, lay at 8170 nM.

Turning to `Cc1nnc(-c2ccc3cnc(NC(=O)C4(F)CCCCC4)cc3c2)s1` [Compound 883, 1-Fluoro-N-(6-(5-methyl-1,3,4-thiadiazol-2-yl)isoquinolin-3-yl)cyclohexane-1-carboxamide], the inhibition at 10 µM is 43.2% in assay [1], 35.5% in assay [5], 14% in assay [6] and 9.1% in assay [7]. For the same compound, the 50% effective concentration (EC50) in assay [1] was more than 10000 nM; in assay [2], 8.9 nM; in assay [3] it was 76 nM; in assay [4], 1100 nM; in assay [5] it was more than 10000 nM; in assay [6], more than 10000 nM. In assay [7], this compound gave an EC50 of more than 10000 nM.

For the compound `CO[C@H]1CC[C@H](C(=O)Nc2cc3cc(-c4cncn4C)ccc3cn2)CC1` [Compound 528, trans-4-Methoxy-N-(6-(1-methyl-1H-imidazol-5-yl)isoquinolin-3-yl) cyclohexane-1-carboxamide], the EC50 in assay [1] is 1150 nM; in assay [2] it was 0.8 nM; in assay [3] it was 96 nM; in assay [4] it was 323 nM; in assay [5], 1420 nM; in assay [6], 103 nM. In assay [7], the response was half-maximal at 1780 nM (EC50).

In the case of `Cn1cc(-c2ccc3cnc(NC(=O)[C@@H]4CCCCN4)cc3c2)cn1` [Compound 340, (S)—N-(6-(1-Methyl-1H-pyrazol-4-yl)isoquinolin-3-yl)piperidine-2-carboxamide], the concentration for a half-maximal effect (EC50) in assay [1] came to 932 nM; in assay [2], 1.9 nM; in assay [3], 257 nM; in assay [4], 2300 nM; in assay [5], 2230 nM; in assay [6], 413 nM. For the same compound, in assay [7], the EC50 stood at 562 nM.

With `CN1CCC(C(=O)Nc2cc3cc(-c4ccn(C)n4)ccc3cn2)CC1` [Compound 264, 1-Methyl-N-(6-(1-methyl-1H-pyrazol-3-yl)isoquinolin-3-yl)piperidine-4-carboxamide], the EC50 was more than 10000 nM in assay [1]; 348 nM in assay [2]; more than 10000 nM in assay [3]; more than 10000 nM in assay [4]; 8750 nM in assay [5]; more than 10000 nM in assay [6]. The compound also had an EC50 in assay [7] of more than 10000 nM. Further, the inhibition at 10 µM was 11.7% in assay [6] and 4% in assay [7].

Regarding `O=C(Nc1cc2cc(-c3cnco3)ccc2cn1)C1CCN(CCC(F)(F)F)CC1` [Compound 308, N-(6-(Oxazol-5-yl)isoquinolin-3-yl)-1-(3,3,3-trifluoropropyl)piperidine-4-carboxamide], the EC50 in assay [1] was 1810 nM; in assay [2], 2.4 nM; in assay [3], 107 nM; in assay [4], 361 nM; in assay [5] it was more than 10000 nM; in assay [6], more than 10000 nM. Further, in assay [7], the concentration for a half-maximal effect (EC50) turned out to be 9230 nM. Moreover, the inhibition at 10 µM was 32% in assay [5] and 27.6% in assay [6].

As for `Cn1ncc(-c2ccc3cnc(NC(=O)C4CCC(F)(F)CC4)cc3c2)c1CN1CCCC1` [Compound 299, 4,4-Difluoro-N-(6-(1-methyl-5-(pyrrolidin-1-ylmethyl)-1H-pyrazol-4-yl)isoquinolin-3-yl)cyclohexane-1-carboxamide], the EC50 in assay [1] is 1530 nM; in assay [2], 6.7 nM; in assay [3] it was 44 nM; in assay [4], 573 nM; in assay [5], 2240 nM; in assay [6], 1210 nM. The same compound yielded an EC50 in assay [7] of 4530 nM.

Regarding `C[C@H]1CN(C)CCN1CC(=O)Nc1cc2cc(-c3cnn(C)c3)ccc2cn1` [Compound 355, (S)-2-(2,4-Dimethylpiperazin-1-yl)-N-(6-(1-methyl-1H-pyrazol-4-yl)isoquinolin-3-yl)acetamide], the EC50 in assay [1] worked out at 3510 nM; in assay [2] it was 6.4 nM; in assay [3], 228 nM; in assay [4], 1700 nM; in assay [5], 8630 nM; in assay [6], 6190 nM. The compound also returned an EC50 in assay [7] of 9130 nM.

On to `Cn1cc(-c2cc3cc(NC(=O)C4CCNCC4)ncc3cc2Cl)cn1` [Compound 1013, N-(7-Chloro-6-(1-methyl-1H-pyrazol-4-yl)isoquinolin-3-yl)piperidine-4-carboxamide], for which the inhibition at 10 µM in assay [1] worked out at 42.9%. Also, the EC50 in assay [1] is more than 10000 nM; in assay [2] it was 17.1 nM; in assay [3] it was 1430 nM; in assay [4] it was 4200 nM; in assay [5] it was 5500 nM; in assay [6], 2440 nM. Also, it took 6820 nM to reach a half-maximal effect in assay [7] (EC50).

Take `Cn1cc(-c2ccc3cnc(NC(=O)[C@@H]4CCCO4)cc3c2)cn1` [Compound 71, (S)—N-(6-(1-Methyl-1H-pyrazol-4-yl)isoquinolin-3-yl)tetrahydrofuran-2-carboxamide]: the half-maximal effective concentration (EC50) in assay [1] was 3900 nM; in assay [2], 13.6 nM; in assay [3], 62 nM; in assay [4] it was 1510 nM; in assay [5], 8100 nM; in assay [6], more than 10000 nM. In assay [7], this compound gave a concentration giving a half-maximal response (EC50) of 6730 nM. Besides, in assay [6], the inhibition at 10 µM worked out at 33.4%.

With `Cn1ncc(-c2ccc3cnc(NC(=O)C4CCN(C5COC5)CC4)cc3c2)c1CN1CCCCC1` [Compound 826, N-(6-(1-Methyl-5-(piperidin-1-ylmethyl)-1H-pyrazol-4-yl)isoquinolin-3-yl)-1-(oxetan-3-yl)piperidine-4-carboxamide], the concentration for a half-maximal effect (EC50) in assay [1] is 603 nM; in assay [2] it was 3.9 nM; in assay [3], 7 nM; in assay [4], 568 nM; in assay [5], 897 nM; in assay [6], 149 nM. Besides, a half-maximal effect in assay [7] (EC50) was put at 3290 nM.

`CC(C)CN1CCC(C(=O)Nc2cc3cc(-c4cn[nH]c4)ccc3cn2)CC1` [Compound 643, N-(6-(1H-Pyrazol-4-yl)isoquinolin-3-yl)-1-isobutylpiperidine-4-carboxamide]: the EC50 in assay [1] turned out to be 129 nM; in assay [2], 1.8 nM; in assay [3], 49 nM; in assay [4], 49 nM; in assay [5], 115 nM; in assay [6], 138 nM. In assay [7], this compound returned an EC50 of 129 nM.
